Read-outs that look alike come from different tables or passages of the source.
Assays:
NTRK1 = molecular target: T1, NTRK1 (Homo sapiens, UniProt P04629); assay: Kinobeads competition binding: NTRK1; settings: target NTRK1
T1 construct: endogenous in cells

MAPK1 = assay: Kinobeads competition binding: MAPK1; design: species or system human; settings: target MAPK1
MAPK11 = assay: Kinobeads competition binding: MAPK11; design: species or system human; settings: target MAPK11
MAP3K3 = assay: Kinobeads competition binding: MAP3K3; design: species or system human; settings: target MAP3K3
AP1G1 = assay: Kinobeads competition binding: AP1G1; design: species or system human; settings: target AP1G1
CDK10 = assay: Kinobeads competition binding: CDK10; design: species or system human; settings: target CDK10
EGFR = molecular target: T2, EGFR (Homo sapiens, UniProt P00533); assay: Kinobeads two-dose competition binding: EGFR; settings: for CATDS: target EGFR
T2 construct: endogenous in cells

PDXK = molecular target: T3, PDXK (Homo sapiens, UniProt O00764); assay: Kinobeads competition binding: PDXK; settings: target PDXK;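 further: share of total target engagement due to this protein at one drug concentration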
T3 construct: a mixture of lysates from five cancer cell lines; endogenous in cells
T3 sequence (O00764 1-312): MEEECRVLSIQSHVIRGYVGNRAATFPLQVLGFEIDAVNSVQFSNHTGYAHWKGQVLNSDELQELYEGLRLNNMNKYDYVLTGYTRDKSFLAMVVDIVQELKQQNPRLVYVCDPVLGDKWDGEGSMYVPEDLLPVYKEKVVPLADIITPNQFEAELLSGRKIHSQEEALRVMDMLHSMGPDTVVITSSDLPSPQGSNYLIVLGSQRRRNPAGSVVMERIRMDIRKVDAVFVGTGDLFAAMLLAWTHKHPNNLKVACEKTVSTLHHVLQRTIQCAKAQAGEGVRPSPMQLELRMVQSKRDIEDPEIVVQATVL
Text: Supplement 41589_2023_1459_MOESM4_ESM.xlsx, sheet "CATDS matrix" | column: PDXK

MAPKAPK2 = molecular target: T4, MAPKAPK2 (Homo sapiens, UniProt P49137); assay: Kinobeads competition binding: MAPKAPK2; settings: target MAPKAPK2
T4 construct: endogenous in cells

NLK = assay: Kinobeads competition binding: NLK; design: species or system human; settings: target NLK;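 further: selectivity score: engagement of this protein divided by summed engagement of all targets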
MELK = assay: Kinobeads competition binding: MELK; design: species or system human; settings: target MELK;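 further: share of total target engagement due to this protein at one drug concentration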
CDK9 = assay: Kinobeads competition binding: CDK9; design: species or system human; settings: target CDK9
LYN = assay: Kinobeads competition binding: LYN; design: species or system human; settings: target LYN
FLAD1 = assay: Kinobeads competition binding: FLAD1; design: species or system human; settings: target FLAD1;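 further: selectivity score: engagement of this protein divided by summed engagement of all targets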
PIM2 = molecular target: T5, PIM2 (Homo sapiens, UniProt Q9P1W9); assay: Kinobeads competition binding: PIM2; settings: target PIM2
T5 construct: a mixture of lysates from five cancer cell lines; endogenous in cells
Text: Supplement 41589_2023_1459_MOESM4_ESM.xlsx, sheet "CATDS matrix" | column: PIM2

MYLK3 = assay: Kinobeads competition binding: MYLK3; design: species or system human; settings: target MYLK3;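 further: share of all-target engagement taken by this protein at its own Kdapp concentration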
MAP2K1 = assay: Kinobeads competition binding: MAP2K1; design: species or system human; settings: target MAP2K1
MAPK9 = assay: Kinobeads competition binding: MAPK9; design: species or system human; settings: target MAPK9
PKN3 = PKN3 (Homo sapiens, UniProt Q6P5Z2); assay: Kinobeads two-dose competition binding: PKN3; design: endogenous in cells; settings: for CATDSPKN3: selectivity score from Kinobeads two-dose data
Text: Briefly, Kinobeads comprise seven broad-spectrum small molecule kinase inhibitors immobilized on Sepharose beads. […]. Compounds of interest are set to compete for target protein binding with Kinobeads in the lysate and the amount of a given protein bound to Kinobeads in the presence of a compound can be quantified relative to a dimethylsulfoxide (DMSO) vehicle control by label-free mass spectrometry. This assay measures the physical interaction of a compound with thousands of endogenous proteins in parallel and, when systematically increasing the concentration of competitor, enables the calculation of an apparent interaction constant ( Kdapp ) for each compound and protein.
Kinobeads pulldown experiments were performed as described previously[13],[14],[17] with minor modification. […] The protein concentration was adjusted to 5 mg ml^−1. Kinase inhibitors were spiked into 0.5 ml of cell lysate at final concentrations of 100 and 1,000 nM (or DMSO, 0.3, 1, 3, 10, 30, 100, 300 and 1,000 nM for full dose experiments). […] Lysates were incubated for 45 min at 4 °C. Subsequently, lysates were incubated with Kinobeads ε (17.5 µl of settled beads) for 30 min at 4 °C. To assess the degree of protein depletion from the lysates by Kinobeads, the flow through of the DMSO control was recovered for a pulldown of pulldown experiment where the lysate was incubated a second time with fresh Kinobeads. Beads were washed in three steps with buffer containing 0.4%, 0.2% and no IGEPAL. Bound proteins were reduced with 50 mM DTT in 8 M Urea, 40 mM Tris-HCl pH 7.4 for 30 min at room temperature. After alkylation with 55 mM chloroacetamide, the urea concentration was reduced to 1–2 M and proteins were digested with trypsin. Acidified peptides were desalted and concentrated using SepPak tC18 µEluation plates (Waters). Samples were frozen, dried by vacuum centrifugation and stored at −20 °C.
Each kinase inhibitor was processed together with all DMSO controls of the same plate. Additionally, each search was supplemented with five high quality DMSO controls for consistent peptide identification and protein grouping. The resultant file (proteinGroups.txt) was used for subsequent filtering, normalization, data visualization and target annotation that was automatically performed by a data processing pipeline built in house that used R (including the ‘drc’ and ‘heatmap’ packages). First, reverse hits, potential contaminants and not quantified proteins in the DMSO control samples were discarded. Protein raw and label-free quantification intensities were normalized to the median DMSO control intensity to obtain relative residual binding intensities for each protein group at every inhibitor concentration and standard deviations of the DMSO control intensity were calculated. IC50 values were estimated based on the following equation IC50=I×100−inhibition/inhibition where [I] is the inhibitor concentration that was used for IC50 calculation and ‘inhibition’ the relative residual binding intensity. […]. Estimated Kdapp values were then calculated by multiplying the estimated IC50 values with a protein-dependent correction factor that was limited to a maximum value of one. The correction factor accounts for the depletion of a target protein from the lysate by Kinobeads. The depletion can be measured by the ratio of the amount of protein captured in two consecutive pulldowns of the same DMSO control lysate. In this study, correction factors were determined in separate experiments using the same lysate mixture and the same bead batch. Correction factors were set to the median of all correction factors. Targets of kinase inhibitors were annotated using the previously published random forest classifier. A training data set was annotated manually. […]

[1] = Kinobeads two-dose, read-out: Kdapp PKN3

PKN3, sequence (Q6P5Z2 whole entry): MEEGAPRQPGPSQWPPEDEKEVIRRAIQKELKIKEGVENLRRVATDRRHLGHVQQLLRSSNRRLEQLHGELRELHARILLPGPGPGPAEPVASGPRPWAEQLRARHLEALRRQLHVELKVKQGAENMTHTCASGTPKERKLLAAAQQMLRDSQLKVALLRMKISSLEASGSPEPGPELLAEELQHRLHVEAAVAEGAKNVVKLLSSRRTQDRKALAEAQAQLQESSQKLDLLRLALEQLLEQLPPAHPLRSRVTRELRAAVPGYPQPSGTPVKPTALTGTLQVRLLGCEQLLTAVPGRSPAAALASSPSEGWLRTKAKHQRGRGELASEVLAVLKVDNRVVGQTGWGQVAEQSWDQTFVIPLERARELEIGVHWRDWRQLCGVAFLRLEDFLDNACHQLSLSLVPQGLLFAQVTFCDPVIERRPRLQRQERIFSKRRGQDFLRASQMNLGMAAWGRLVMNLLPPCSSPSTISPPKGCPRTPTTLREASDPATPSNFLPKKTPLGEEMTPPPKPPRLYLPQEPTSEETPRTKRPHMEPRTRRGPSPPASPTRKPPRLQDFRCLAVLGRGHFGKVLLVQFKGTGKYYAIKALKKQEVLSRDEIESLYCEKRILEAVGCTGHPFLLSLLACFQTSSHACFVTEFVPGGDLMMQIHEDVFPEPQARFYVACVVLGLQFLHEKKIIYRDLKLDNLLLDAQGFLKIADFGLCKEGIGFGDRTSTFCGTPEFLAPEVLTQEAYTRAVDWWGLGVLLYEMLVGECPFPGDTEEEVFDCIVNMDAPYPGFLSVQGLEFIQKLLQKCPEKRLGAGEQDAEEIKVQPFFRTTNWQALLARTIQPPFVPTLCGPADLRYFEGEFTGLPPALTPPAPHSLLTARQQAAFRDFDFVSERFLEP
T2 sequence (P00533 25-1210): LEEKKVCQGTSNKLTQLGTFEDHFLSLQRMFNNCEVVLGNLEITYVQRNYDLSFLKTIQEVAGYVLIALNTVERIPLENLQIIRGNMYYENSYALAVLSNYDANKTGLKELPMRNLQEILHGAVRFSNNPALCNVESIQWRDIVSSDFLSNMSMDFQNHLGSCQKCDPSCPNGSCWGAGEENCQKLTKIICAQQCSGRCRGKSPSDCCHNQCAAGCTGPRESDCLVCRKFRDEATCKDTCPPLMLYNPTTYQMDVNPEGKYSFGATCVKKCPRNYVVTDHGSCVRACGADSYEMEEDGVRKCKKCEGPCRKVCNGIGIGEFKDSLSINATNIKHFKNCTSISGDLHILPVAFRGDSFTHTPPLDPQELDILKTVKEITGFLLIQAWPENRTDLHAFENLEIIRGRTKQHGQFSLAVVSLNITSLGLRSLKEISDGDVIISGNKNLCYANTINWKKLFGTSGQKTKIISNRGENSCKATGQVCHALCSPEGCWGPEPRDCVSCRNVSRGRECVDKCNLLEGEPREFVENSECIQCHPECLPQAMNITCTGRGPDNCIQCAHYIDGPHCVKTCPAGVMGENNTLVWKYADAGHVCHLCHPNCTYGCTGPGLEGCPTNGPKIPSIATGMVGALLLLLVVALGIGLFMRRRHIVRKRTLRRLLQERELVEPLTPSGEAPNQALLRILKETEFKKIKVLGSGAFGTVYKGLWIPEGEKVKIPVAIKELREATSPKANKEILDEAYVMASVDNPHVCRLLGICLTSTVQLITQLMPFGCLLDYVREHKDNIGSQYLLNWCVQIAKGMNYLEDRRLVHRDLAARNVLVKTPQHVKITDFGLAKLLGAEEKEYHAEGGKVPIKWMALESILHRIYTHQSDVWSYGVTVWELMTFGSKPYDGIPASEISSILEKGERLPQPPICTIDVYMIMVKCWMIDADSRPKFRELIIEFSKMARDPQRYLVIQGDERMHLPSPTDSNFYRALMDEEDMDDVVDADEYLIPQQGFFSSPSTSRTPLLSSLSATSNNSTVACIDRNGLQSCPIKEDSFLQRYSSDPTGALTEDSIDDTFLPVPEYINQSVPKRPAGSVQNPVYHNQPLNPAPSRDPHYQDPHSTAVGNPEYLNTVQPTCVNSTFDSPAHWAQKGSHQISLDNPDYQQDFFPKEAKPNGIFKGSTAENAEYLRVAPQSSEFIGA
T5 sequence (Q9P1W9 whole entry): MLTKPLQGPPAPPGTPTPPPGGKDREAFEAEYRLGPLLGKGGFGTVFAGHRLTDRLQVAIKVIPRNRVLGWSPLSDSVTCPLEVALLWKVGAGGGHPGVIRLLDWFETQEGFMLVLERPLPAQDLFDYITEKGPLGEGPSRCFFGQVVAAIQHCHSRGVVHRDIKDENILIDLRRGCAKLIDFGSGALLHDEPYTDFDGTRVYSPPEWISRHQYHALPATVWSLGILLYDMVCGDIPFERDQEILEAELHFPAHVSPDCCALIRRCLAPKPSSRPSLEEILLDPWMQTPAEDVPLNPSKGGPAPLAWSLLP
T1 sequence (P04629 33-796): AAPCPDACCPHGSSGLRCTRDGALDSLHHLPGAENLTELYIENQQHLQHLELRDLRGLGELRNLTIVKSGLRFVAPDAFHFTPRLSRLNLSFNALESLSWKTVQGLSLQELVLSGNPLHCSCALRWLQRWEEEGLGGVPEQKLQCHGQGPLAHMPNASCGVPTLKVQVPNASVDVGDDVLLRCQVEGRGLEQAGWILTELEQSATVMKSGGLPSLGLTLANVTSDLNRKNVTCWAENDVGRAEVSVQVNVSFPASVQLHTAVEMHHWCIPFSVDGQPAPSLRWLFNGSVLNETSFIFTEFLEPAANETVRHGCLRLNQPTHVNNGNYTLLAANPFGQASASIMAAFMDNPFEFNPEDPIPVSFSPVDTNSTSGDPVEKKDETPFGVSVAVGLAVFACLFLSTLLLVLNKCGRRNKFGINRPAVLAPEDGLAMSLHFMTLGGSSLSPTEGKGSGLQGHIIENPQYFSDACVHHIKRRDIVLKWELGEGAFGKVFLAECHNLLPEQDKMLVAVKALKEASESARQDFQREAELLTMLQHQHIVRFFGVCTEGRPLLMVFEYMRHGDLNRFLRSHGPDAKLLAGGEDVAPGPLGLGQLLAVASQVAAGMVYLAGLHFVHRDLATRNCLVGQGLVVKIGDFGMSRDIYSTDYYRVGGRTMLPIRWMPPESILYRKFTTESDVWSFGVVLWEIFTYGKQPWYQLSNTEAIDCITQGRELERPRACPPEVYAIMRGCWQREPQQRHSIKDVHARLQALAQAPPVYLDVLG
T4 sequence (P49137 whole entry): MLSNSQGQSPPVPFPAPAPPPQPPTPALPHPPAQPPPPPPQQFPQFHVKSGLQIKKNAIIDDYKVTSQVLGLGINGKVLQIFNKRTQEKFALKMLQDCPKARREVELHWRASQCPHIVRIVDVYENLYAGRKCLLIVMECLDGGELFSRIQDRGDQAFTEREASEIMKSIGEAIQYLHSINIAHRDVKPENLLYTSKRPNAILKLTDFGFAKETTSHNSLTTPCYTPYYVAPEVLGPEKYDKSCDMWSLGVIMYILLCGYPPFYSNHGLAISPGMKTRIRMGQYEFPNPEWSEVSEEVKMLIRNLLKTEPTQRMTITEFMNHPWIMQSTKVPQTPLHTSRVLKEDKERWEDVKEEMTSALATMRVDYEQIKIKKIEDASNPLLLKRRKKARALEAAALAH

| Structure (SMILES) | CATDS (NTRK1) | CATDS (MAPK1) | CATDS (MAPK11) | CATDS (MAP3K3) | CATDS (AP1G1) | CATDS (CDK10) | CATDS (EGFR) | CATDS (PDXK) | CATDS (MAPKAPK2) | CATDS (NLK) | CATDS (MELK) | CATDS (CDK9) | CATDS (LYN) | CATDS (FLAD1) | CATDS (PIM2) | CATDS (MYLK3) | CATDS (MAP2K1) | CATDS (MAPK9) | CATDSPKN3 (PKN3) | further results |
| --- | --- | --- | --- | --- | --- | --- | --- | --- | --- | --- | --- | --- | --- | --- | --- | --- | --- | --- | --- | --- |
| CCc1cc2c(cc1N1CCC(N3CCOCC3)CC1)C(C)(C)c1[nH]c3cc(C#N)ccc3c1C2=O [Alectinib] | 0 | 0 | 0 | 0 | 0 | 0 | 0 | 0 | 0 | 0 | 0 | 0 | 0 | 0 | 0 | 0 | 0 | 0 | – | – |
| CN(C)C/C=C/C(=O)Nc1cc2c(Nc3ccc(F)c(Cl)c3)ncnc2cc1O[C@H]1CCOC1 [Afatinib] | – | – | – | – | 0 | 0 | – | 0 | – | – | – | – | – | 0 | 0 | – | – | – | – | – |
| NCc1ccc(-c2nc(-c3ccncc3)c(-c3ccc(Cl)c(O)c3)[nH]2)cc1 [SB-476429-A] | – | – | – | – | – | – | – | – | – | – | – | – | – | – | – | – | – | – | 0.21 | potency estimated from few doses (PKN3; read-out: Kdapp PKN3): 36 nM |
| C#Cc1cccc(Nc2ncnc3cc(OC)c(OC4CCN(C)CC4)cc23)c1 [BI00007366] | – | – | – | – | – | – | – | – | – | – | – | – | – | – | – | – | – | – | – | potency estimated from few doses (EGFR; Kinobeads two-dose, Drugmatrix - all 2, read-out: apparent Kd EGFR): > 1000 nM |
| Nc1ncnc2[nH]c(-c3ccccc3)nc12 [AH5015_KCGS] | 0 | 0 | 0 | 0 | 0 | 0 | 0 | 0 | 0 | 0 | 0 | 0 | 0 | 0 | 0 | 0 | 0 | 0 | – | – |
| CCN1CCN(Cc2ccc(Nc3ncc(F)c(-c4cc(F)c5nc(C)n(C(C)C)c5c4)n3)nc2)CC1 [Abemaciclib] | 0 | 0 | 0 | 0 | 0 | 0 | 0 | 0 | 0 | 0 | 0 | 0.02947 | 0 | 0 | 0 | 0 | 0 | 0 | – | – |
| CCn1c(-c2nonc2N)nc2c(C#CC(C)(C)O)nc(OCCN)cc21 [GSK902056A] | – | – | – | – | – | – | – | – | – | – | – | – | – | – | – | – | – | – | 0.93 | potency estimated from few doses (PKN3; [1]): 1 nM |
| C[C@]12O[C@H](C[C@]1(O)CO)n1c3ccccc3c3c4c(c5c6ccccc6n2c5c31)CNC4=O [Lestaurtinib] | – | – | – | – | – | – | – | – | – | – | – | – | – | – | – | – | – | – | – | potency estimated from few doses (PKN3; read-out: Lestaurtinib Drugmatrix value, Gene Name PKN3, one column per experiment number and replicate (R1-R3)): 755 nM |
| N#CC1(c2ccc(NC(=O)c3cccnc3NCc3ccncc3)cc2)CCCC1 [Apatinib] | 0 | 0 | 0 | 0 | 0 | 0 | 0 | 0 | 0 | 0 | 0 | 0 | 0 | 0 | 0 | 0 | 0 | 0 | – | – |
| CCn1c(-c2nonc2N)nc2c(C#CC(C)(C)O)nc(OCCNC)cc21 [GSK949675A] | – | – | – | – | – | – | – | – | – | – | – | – | – | – | – | – | – | – | 0.86 | potency estimated from few doses (PKN3; [1]): 2.5 nM |
